Laboratory results published in patent US4652582A, “Antiinflammatory-2-halo-4,5-diarylpyrroles” (E. I. Du Pont de Nemours and Company, priority 1985, dated 1987).
Like-named read-outs stand apart in the source and are kept apart here.

System: adjuvant-induced arthritis
Test: Established adjuvant-induced arthritis in rats (paw volume, uninjected left hind paw)
Format: in vivo, Male Charles River Lewis rats
Settings: for ED50: read-out: Adjuvant Arthritis ED50 (effective dose for 50% decrease from control paw volume); for % decrease from control paw volume at indicated daily dose: oral
Excerpt: To detect and compare the antiinflammatory activities of compounds in this series and standard drugs, the adjuvant arthritis test was used. A good correlation exists with results in this assay and human efficacy. (Federation Proceedings, 32, 2, 1973 "Models Used for the Study and Therapy of Rheumatoid Arthritis"--Symposium of the American Society for Pharmacology and Experimental Therapeutics).
ESTABLISHED ADJUVANT-INDUCED ARTHRITIS IN RATS
Male Charles River Lewis rats (130-150 grams) are injected subcutaneously in the plantar area of the right hind paw with 0.1 ml of adjuvant (Difco heat-killed, lyophilized Mycobacterium butyricum suspended in mineral oil 5 mg/ml). 20 Non-arthritic controls are injected with mineral oil. The animals are held for 2 weeks to allow development of arthritis. Paw volumes (uninjected, left hind paw) are measured and the adjuvant injected rats are culled and distributed to treatment groups of 10 of equal disease severity. Non-arthritic controls are distributed to 2 groups of 10. The rats are given oral doses of compound or PVA-Acacia (Polyvinyl Alcohol 1%, Gum acacia, U.S.P. 5%, Methylparaben 0.5%) or 0.25% methocel (10 ml/kg) by gavage on that day and on the 6 following days. One day after the last dose, the paw volumes (uninjected, left hind paw) are measured using a Ugo Basile Volume Differential Meter Model 7101. Inhibiting effects are calculated by the following formula: [formula]
Dose-response regression lines of the percent decrease are plotted on semi-log paper by visual fit and the effective dose for 50% decrease from control paw volume (ED50) is determined by inspection.
Compounds from this series were also compared to indomethacin, phenylbutazone, ibuprofen, and aspirin.

[1] = rat, oral gavage daily, 7 days, paw volume one day after last dose

| SMILES | ED50 [1] | further results |
| --- | --- | --- |
| CC(=O)Oc1ccccc1C(=O)O [Aspirin, reference compound] | – | ED50 (Rattus norvegicus, po): 305 mg/kg |
| CC(C)(C)OC(=O)n1c(Br)cc(-c2ccc(F)cc2)c1-c1ccc(S(C)(=O)=O)cc1 [Example 1, 1-tert-Butyloxycarbonyl-2-bromo-4-(4-fluorophenyl)-5-(4-methylsulfonylphenyl)pyrrole] | – | % decrease from control paw volume at indicated daily dose (rat, daily dose 9 (mg/kg)): 44% |
| CS(=O)(=O)c1ccc(-c2[nH]c(Br)cc2-c2ccc(F)cc2)cc1 [Example 2, 2-Bromo-4-(4-fluorophenyl)-5-(4-methylsulfonylphenyl)-1H-pyrrole] | 1.1 mg/kg | – |
| CS(=O)(=O)c1ccc(-c2[nH]c(Cl)cc2-c2ccc(F)cc2)cc1 [Example 3, 2-Chloro-4-(4-fluorophenyl)-5-(4-methylsulfonylphenyl)-1H-pyrrole] | 0.5 mg/kg | – |
| CS(=O)(=O)c1ccc(-c2[nH]c(I)cc2-c2ccc(F)cc2)cc1 [Example 4, 2-Iodo-4-(4-fluorophenyl)-5-(4-methylsulfonylphenyl)-1H-pyrrole] | 22 mg/kg | – |
| Cn1c(Br)cc(-c2ccc(F)cc2)c1-c1ccc(S(C)(=O)=O)cc1 [Example 5, 1-Methyl-2-bromo-4-(4-fluorophenyl)-5-(4-methylsulfonylphenyl)pyrrole] | 1.7 mg/kg | – |
| CS(=O)(=O)c1ccc(-c2[nH]c(Br)c(Br)c2-c2ccc(F)cc2)cc1 [Example 6] | 0.88 mg/kg | – |
| CS(=O)(=O)c1ccc(-c2[nH]c(Cl)c(Br)c2-c2ccc(F)cc2)cc1 [Example 8, 2-Chloro-3-bromo-4-(4-fluorophenyl)-5-(4-methylsulfonylphenyl)-1H-pyrrole] | – | % decrease from control paw volume at indicated daily dose (rat, daily dose 3 (mg/kg)): 45% |
| CS(=O)(=O)c1ccc(-c2[nH]c(Cl)c(Cl)c2-c2ccc(F)cc2)cc1 [Example 9] | 1.5 mg/kg | – |
| CC(C)Cc1ccc(C(C)C(=O)O)cc1 (stereo not drawn) [Ibuprofen, reference compound] | 100 mg/kg | – |
| COc1ccc2c(c1)c(CC(=O)O)c(C)n2C(=O)c1ccc(Cl)cc1 [Indomethacin, reference compound] | – | ED50 (Rattus norvegicus, po): 0.3 mg/kg |
| CCCCC1C(=O)N(c2ccccc2)N(c2ccccc2)C1=O [Phenylbutazone, reference compound] | 10 mg/kg | – |
